pEC50, pIC50: −log10 of the molar value. Entries after “also recorded” stand apart in the source; their conditions may differ.
Legend:
HCV replicon = test: Three-drug combination studies in HCV replicon system, combination index; assay type: cell-based
Protocol: […] an NS5B replicase inhibitor (compound 2006; WO 03/010141), were tested in 2-drug combinations with the macrocyclic HCV NS3 protease inhibitor compound 28. In addition, compound 28 was also tested in 3-drug combinations with the NS5A and NS5B inhibitors.
For the experiments shown in Tables 8 and 9, inhibitors were tested at eleven concentrations each. 200× stock solutions of each inhibitor concentration were prepared by 2- or 3-fold dilution in DMSO prior to addition to cells/media. The drugs were tested as monotherapies and in combination with the NS3 protease inhibitor at various concentration ratios. Cells were exposed to compounds for 4 days and the amount of HCV inhibition was then determined using the FRET assay. The potential cytotoxicities of these combined agents were also analyzed in parallel by Alamar Blue staining. […] The degree of antagonism, additivity, or synergy was determined over a range of drug concentrations, and combination response curves were fit to assess the antiviral effects of the drug treatment combinations. The concentration ratios were analyzed using the method of Chou (Chou, Ting-Chao, and Rideout (Editors), (1991) Synergism and Antagonism in Chemotherapy, P. 61–101, Academic Press, New York). Tables 8 and 9 report the estimated EC50 values for the compounds tested, as well as the combination indices (CI). All estimates were computed using SAS Proc NLIN, and a two-parameter logistic. All combination indices were tested for departure from additivity using isobologram methods. Asymptotic confidence intervals were also calculated for each of the combination indices. These intervals are used to test for departure from additivity by comparing the bounds to one—a lower bound of the interval greater than 1 indicates antagonism, an upper bound of less than 1 indicates synergism, and a value of 1 contained in the interval indicates additivity.
Compound 28 was also tested in 3-drug combination experiments with the NS5A inhibitor and the NS5B inhibitor (Table 12). The starting concentrations for the mono-therapies consisted of a 0.667 μM solution of the NS5A inhibitor, a 0.3 μM solution of compound 28, and a 2.5 μM solution of the NS5B inhibitor. The starting concentration for the triple combination contained a mixture of ⅓ of each of the above concentrations. Dose response curves for all three mono-therapies and the triple combination therapy were obtained using 3-fold dilutions, and data analysis was carried out as described above for combination index experiments.

[1] = test system: human pancreatic chymotrypsin; test: Specificity assay, chymotrypsin; assay type: biochemical; settings: read-out: Chymotrypsin activity in the specificity assays (IC50)
Protocol: (§1) The specificities of compounds of the present invention were determined against a variety of serine proteases: human neutrophil elastase (HNE), porcine pancreatic elastase (PPE) and human pancreatic chymotrypsin and one cysteine protease: human liver cathepsin B. In all cases a 96-well plate format protocol using calorimetric p-nitroaniline (pNA) substrate specific for each enzyme was used as described previously (PCT Patent Application No. WO 00/09543) with some modifications to the serine protease assays. All enzymes were purchased from Sigma while the substrates were from Bachem.
(§2) Each assay included a 2 hr enzyme-inhibitor pre-incubation at room temperature followed by addition of substrate and hydrolysis to ˜30% conversion as measured on a Spectramax Pro microplate reader. Compound concentrations varied from 100 to 0.4 micromolar (“μM”) depending on their potency. […]
(§3) The percentage of inhibition was calculated using the formula: [1−((UVinh−UVblank)/(UVctl−UVblank))]×100 […]

[2] = biological target: T1, human neutrophil elastase (HNE) (Homo sapiens, UniProt P08246); test: Specificity assay, human neutrophil elastase; assay type: biochemical; settings: read-out: HNE activity in the specificity assays (IC50)
T1 construct: purchased Sigma
T1 sequence (P08246 30-267): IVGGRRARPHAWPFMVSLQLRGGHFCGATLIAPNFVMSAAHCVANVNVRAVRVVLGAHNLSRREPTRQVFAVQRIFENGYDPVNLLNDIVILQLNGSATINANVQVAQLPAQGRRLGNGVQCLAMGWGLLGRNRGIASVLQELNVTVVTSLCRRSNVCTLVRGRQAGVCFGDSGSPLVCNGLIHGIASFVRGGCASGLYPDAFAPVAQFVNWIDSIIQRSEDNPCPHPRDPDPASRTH
Protocol: as §1, §2, §3

[3] = biological target: T2, porcine pancreatic elastase (PPE) (Sus scrofa, UniProt P00772); test: Specificity assay, porcine pancreatic elastase; assay type: biochemical; settings: read-out: PPE activity in the specificity assays (IC50)
T2 construct: purchased Sigma
T2 sequence (P00772 27-266): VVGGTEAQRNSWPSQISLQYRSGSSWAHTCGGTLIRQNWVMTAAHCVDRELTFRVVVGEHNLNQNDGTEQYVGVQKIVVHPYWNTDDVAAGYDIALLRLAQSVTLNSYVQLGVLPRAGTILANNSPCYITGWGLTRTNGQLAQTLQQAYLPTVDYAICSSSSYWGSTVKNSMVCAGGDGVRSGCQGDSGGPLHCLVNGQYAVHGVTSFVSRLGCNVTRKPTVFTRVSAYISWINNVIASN
Protocol: as §1, §2, §3

SMILES | combination effect, 3-drug combination with the NS5A inhibitor and the NS5B inhibitor (HCV replicon; 75, 90 and 95% effective doses) | pEC50 (HCV replicon; Hepatitis C virus, mono-therapy in the three-drug combination experiment, HCV replicon, NS3 Pr inhibitor is compound 28, read-out: NS3 Pr inhibitor EC50) | pIC50 [1] | pIC50 [2] | pIC50 [3]
COc1ccc2c(OC3CC4C(=O)NC5(C(=O)NS(=O)(=O)C6CC6)CC5C=CCOCCCC(NC(=O)OC(C)(C)C)C(=O)N4C3)nccc2c1 (centres unmarked) [Compound 28, [4-Cyclopropanesulfonylaminocarbonyl-18-(6-methoxy-isoquinolin-1-yloxy)-2,15-dioxo-10-oxa-3,16-diaza-tricyclo[14.3.0.0^4,6]nonadec-7-en-14-yl]-carbamic acid tert-butyl ester] | Synergistic effects; also recorded: No drug antagonism | 8.10 | – | – | –
CC(C)(C)OC(=O)N[C@H]1CCCCC/C=C\[C@@H]2C[C@@]2(C(=O)NS(C)(=O)=O)NC(=O)[C@@H]2C[C@@H](Oc3nccc4ccccc34)CN2C1=O [Compound 2, [18-(Isoquinolin-1-yloxy)-4-methanesulfonylaminocarbonyl-2,15-dioxo-3,16-diaza-tricyclo[14.3.0.0^4,6]nonadec-7-en-14-yl]-carbamic acid tert-butyl ester] | – | – | < 4.00 | < 4.00 | < 4.00

Reference: patent publication US7173004B2, “Macrocyclic isoquinoline peptide inhibitors of hepatitis C virus” (Bristol-Myers Squibb Company, priority 2003, dated 2007)
